Test results reported in PubChem BioAssay (NCI).
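A five-concentration, 48-hour dose response in 96-well plates underlies each endpoint, interpolated linearly between surrounding concentrations. Here, GI50 denotes the concentration required for 50% inhibition of growth. TGI is the concentration that stops growth completely.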

Assays:
Assay in all cases: NCI anticancer screen, dose series, 48 h
786-0 renal = tested on: 786-0 renal
A498 renal = tested on: A498 renal
A549 NSCLC = tested on: A549 NSCLC
ACHN renal = tested on: ACHN renal
BT-549 breast = tested on: BT-549 breast
CAKI-1 renal = tested on: CAKI-1 renal
CCRF-CEM leukemia = tested on: CCRF-CEM leukemia
COLO 205 colon = tested on: COLO 205 colon
DU-145 prostate = tested on: DU-145 prostate
EKVX NSCLC = tested on: EKVX NSCLC
HCC-2998 colon = tested on: HCC-2998 colon
HCT-116 colon = tested on: HCT-116 colon
HCT-15 colon = tested on: HCT-15 colon
HL-60(TB) leukemia = tested on: HL-60(TB) leukemia
HOP-62 NSCLC = tested on: HOP-62 NSCLC
HOP-92 NSCLC = tested on: HOP-92 NSCLC
HS 578T breast = tested on: HS 578T breast
HT29 colon = tested on: HT29 colon
IGROV1 ovarian = tested on: IGROV1 ovarian
K-562 leukemia = tested on: K-562 leukemia
KM12 colon = tested on: KM12 colon
LOX IMVI melanoma = tested on: LOX IMVI melanoma
M14 melanoma = tested on: M14 melanoma
MALME-3M melanoma = tested on: MALME-3M melanoma
MCF7 breast = tested on: MCF7 breast
MDA-MB-231 breast = tested on: MDA-MB-231 breast
MDA-MB-435 = tested on: MDA-MB-435
MOLT-4 leukemia = tested on: MOLT-4 leukemia
NCI-H226 lung = tested on: NCI-H226 lung
NCI-H23 lung = tested on: NCI-H23 lung
NCI-H460 lung = tested on: NCI-H460 lung
NCI-H522 lung = tested on: NCI-H522 lung
NCI/ADR-RES ovarian = tested on: NCI/ADR-RES ovarian
OVCAR-3 ovarian = tested on: OVCAR-3 ovarian
OVCAR-4 ovarian = tested on: OVCAR-4 ovarian
OVCAR-5 ovarian = tested on: OVCAR-5 ovarian
OVCAR-8 ovarian = tested on: OVCAR-8 ovarian
PC-3 prostate = tested on: PC-3 prostate
RPMI-8226 leukemia = tested on: RPMI-8226 leukemia
RXF 393 renal = tested on: RXF 393 renal
SF-268 CNS = tested on: SF-268 CNS
SF-295 CNS = tested on: SF-295 CNS
SF-539 CNS = tested on: SF-539 CNS
SK-MEL-2 melanoma = tested on: SK-MEL-2 melanoma
SK-MEL-28 melanoma = tested on: SK-MEL-28 melanoma
SK-MEL-5 melanoma = tested on: SK-MEL-5 melanoma
SK-OV-3 ovarian = tested on: SK-OV-3 ovarian
SN12C renal = tested on: SN12C renal
SNB-19 CNS = tested on: SNB-19 CNS
SNB-75 CNS = tested on: SNB-75 CNS
SR leukemia = tested on: SR leukemia
SW-620 colon = tested on: SW-620 colon
T-47D breast = tested on: T-47D breast
TK-10 renal = tested on: TK-10 renal
U251 CNS = tested on: U251 CNS
UACC-257 melanoma = tested on: UACC-257 melanoma
UACC-62 melanoma = tested on: UACC-62 melanoma
UO-31 renal = tested on: UO-31 renal

Structure (SMILES): Oc1c(CN2CCCC2)cc(COCc2ccccc2)c2cccnc12
- GI50 (786-0 renal): 2.22 µM
- TGI (786-0 renal): 8.52 µM
- GI50 (A498 renal): 3.82 µM
- TGI (A498 renal): 15 µM
- GI50 (A549 NSCLC): 3.35 µM
- TGI (A549 NSCLC): 14.1 µM
- GI50 (ACHN renal): 0.358 µM
- TGI (ACHN renal): 10.2 µM
- GI50 (BT-549 breast): 3.52 µM
- TGI (BT-549 breast): 18.1 µM
- GI50 (CAKI-1 renal): 0.26 µM
- TGI (CAKI-1 renal): 14.2 µM
- GI50 (CCRF-CEM leukemia): 1.43 µM
- TGI (CCRF-CEM leukemia): 15.4 µM
- GI50 (COLO 205 colon): 10.4 µM
- TGI (COLO 205 colon): 26.6 µM
- GI50 (DU-145 prostate): 3.4 µM
- TGI (DU-145 prostate): 16.8 µM
- GI50 (EKVX NSCLC): 2.01 µM
- TGI (EKVX NSCLC): 15.6 µM
- GI50 (HCC-2998 colon): 3.72 µM
- TGI (HCC-2998 colon): 16.5 µM
- GI50 (HCT-116 colon): 2.65 µM
- TGI (HCT-116 colon): 11 µM
- GI50 (HCT-15 colon): 0.152 µM
- TGI (HCT-15 colon): 2.9 µM
- GI50 (HL-60(TB) leukemia): 2.52 µM
- TGI (HL-60(TB) leukemia): 8.95 µM
- GI50 (HOP-62 NSCLC): 1.65 µM
- TGI (HOP-62 NSCLC): 9.5 µM
- GI50 (HOP-92 NSCLC): 7.15 µM
- TGI (HOP-92 NSCLC): 26.6 µM
- GI50 (HS 578T breast): 8.71 µM
- TGI (HS 578T breast): 58.7 µM
- GI50 (HT29 colon): 10.4 µM
- TGI (HT29 colon): 26.5 µM
- GI50 (IGROV1 ovarian): 3.54 µM
- TGI (IGROV1 ovarian): 13.8 µM
- GI50 (K-562 leukemia): 2.62 µM
- TGI (K-562 leukemia): 20.7 µM
- GI50 (KM12 colon): 2.14 µM
- TGI (KM12 colon): 18.2 µM
- GI50 (LOX IMVI melanoma): 0.798 µM
- TGI (LOX IMVI melanoma): 5.61 µM
- GI50 (M14 melanoma): 1.11 µM
- TGI (M14 melanoma): 10.1 µM
- GI50 (MALME-3M melanoma): 3.35 µM
- TGI (MALME-3M melanoma): 14.4 µM
- GI50 (MCF7 breast): 2.82 µM
- TGI (MCF7 breast): 13.3 µM
- GI50 (MDA-MB-231 breast): 4.98 µM
- TGI (MDA-MB-231 breast): 20.1 µM
- GI50 (MDA-MB-435): 4.43 µM
- TGI (MDA-MB-435): 26.3 µM
- GI50 (MOLT-4 leukemia): 2.96 µM
- TGI (MOLT-4 leukemia): 11.4 µM
- GI50 (NCI-H226 lung): 2.69 µM
- TGI (NCI-H226 lung): 12 µM
- GI50 (NCI-H23 lung): 2.89 µM
- TGI (NCI-H23 lung): 11.6 µM
- GI50 (NCI-H460 lung): 0.774 µM
- TGI (NCI-H460 lung): 11.8 µM
- GI50 (NCI-H522 lung): 2.62 µM
- TGI (NCI-H522 lung): 9.97 µM
- GI50 (NCI/ADR-RES ovarian): 0.152 µM
- TGI (NCI/ADR-RES ovarian): 0.761 µM
- GI50 (OVCAR-3 ovarian): 2.13 µM
- TGI (OVCAR-3 ovarian): 13.3 µM
- GI50 (OVCAR-4 ovarian): 0.903 µM
- TGI (OVCAR-4 ovarian): 13.6 µM
- GI50 (OVCAR-5 ovarian): 4.1 µM
- TGI (OVCAR-5 ovarian): 21.2 µM
- GI50 (OVCAR-8 ovarian): 2.53 µM
- TGI (OVCAR-8 ovarian): 12 µM
- GI50 (PC-3 prostate): 2.73 µM
- TGI (PC-3 prostate): 23.3 µM
- GI50 (RPMI-8226 leukemia): 3.84 µM
- TGI (RPMI-8226 leukemia): 19.4 µM
- GI50 (RXF 393 renal): 2.11 µM
- TGI (RXF 393 renal): 8.29 µM
- GI50 (SF-268 CNS): 1.99 µM
- TGI (SF-268 CNS): 18.5 µM
- GI50 (SF-295 CNS): 2.86 µM
- TGI (SF-295 CNS): 13.7 µM
- GI50 (SF-539 CNS): 2.89 µM
- TGI (SF-539 CNS): 10.1 µM
- GI50 (SK-MEL-2 melanoma): 4.68 µM
- TGI (SK-MEL-2 melanoma): 20.1 µM
- GI50 (SK-MEL-28 melanoma): 3.49 µM
- TGI (SK-MEL-28 melanoma): 18.6 µM
- GI50 (SK-MEL-5 melanoma): 1.12 µM
- TGI (SK-MEL-5 melanoma): 4.76 µM
- GI50 (SK-OV-3 ovarian): 2.02 µM
- TGI (SK-OV-3 ovarian): 9.27 µM
- GI50 (SN12C renal): 4.04 µM
- TGI (SN12C renal): 20.8 µM
- GI50 (SNB-19 CNS): 3.53 µM
- TGI (SNB-19 CNS): 92.4 µM
- GI50 (SNB-75 CNS): 2.79 µM
- TGI (SNB-75 CNS): 28.6 µM
- GI50 (SR leukemia): 1.83 µM
- TGI (SR leukemia): 16.9 µM
- GI50 (SW-620 colon): 3.27 µM
- TGI (SW-620 colon): 18.2 µM
- GI50 (T-47D breast): 2.97 µM
- TGI (T-47D breast): 15.4 µM
- GI50 (TK-10 renal): 1.84 µM
- TGI (TK-10 renal): 22.3 µM
- GI50 (U251 CNS): 2.07 µM
- TGI (U251 CNS): 13.3 µM
- GI50 (UACC-257 melanoma): 2.84 µM
- TGI (UACC-257 melanoma): 8.25 µM
- GI50 (UACC-62 melanoma): 1.81 µM
- TGI (UACC-62 melanoma): 7.7 µM
- GI50 (UO-31 renal): 0.158 µM
- TGI (UO-31 renal): 2.55 µM
